The text below walks through data of US8067468B2, “L-carnitine and alkanoyl L-carnitine phytates and process for preparing the same” (priority 2009, dated 2011).

Structures can show the parent of a compound that is named as a salt.

Data set [1] in a line: pH value of the product (c=1% H2O). In kind it is physicochemical. The method, then: According to one embodiment, the solution (having a pH value of about 4) was further stirred 20 minutes. According to one embodiment, the solution was concentrated on an evaporator under a vacuum at 50° C. According to one embodiment, the residue was repeatedly (3 times) taken up using anhydrous ethanol under a vacuum to dry the solution as much as possible.

The nature of data set [2]: Odor of the dried product (sign of decomposition / acid smell). The following applies: dried solid product. The format is physicochemical. The method, then: According to one embodiment, 96.7 grams (0.6 mole) of L-carnitine inner salt (C7H15NO3, molecular weight 161.20) was added to a 50% aqueous solution (having a pH value <1) of 66.0 grams (0.1 mole) phytic acid and stirred at room temperature resulting in an exothermic reaction. […] According to one embodiment, the solution (having a pH value of about 4) was further stirred 20 minutes. […] According to one embodiment, the residue is further dried in a vacuum oven at 50° C. to obtain 166.2 grams of white solid powder with an almost quantitative yield (i.e., the white solid powder contains 2% H2O).
According to one embodiment, 122.09 grams (0.6 mole) of acetyl L-carnitine inner salt (C9H17NO4, molecular weight 203.24) was added to a 50% aqueous solution (having a pH value <1) of 66.0 grams (0.1 mole) phytic acid and stirred at room temperature resulting in an exothermic reaction. […] According to one embodiment, the residue is further dried in a vacuum oven at 50° C. to obtain 192.7 grams of white solid powder with an almost quantitative yield (i.e., the white solid powder contains 2% H2O). […]

The conditions of data set [3]: cited from earlier work.
The conditions of data set [4]: post-administration, independent of route; cited from earlier work.
For data set [5], the system named is human mammary cancer cell line. The settings on record: incubated with a human mammary cancer cell line; cited from earlier work.
In a further data set the test system is mice. In words: Single dose oral acute toxicity study (LD50). In kind it is in vivo. The procedure: The single dose oral acute toxicity of L-carnitine phytate (in a 6:1 mole ratio) was evaluated in mice. Five dosages (25, 20, 15, 10, and 5 g/Kg) were orally administrated to five groups of mice in which each group had five male and five female mice. After dosing, the five groups of mice were observed and daily records (for 14 days) were made of their general conditions, toxic response, and deaths. All of the dead mice were necropsied, in which each of the body's thorace and abdomen were opened, and each heart, liver, spleen, lung, kidney, and intestine were examined and recorded.

In data set [1], `CC(=O)O[C@H](CC(=O)O)C[N+](C)(C)C` [Example Embodiment 3, Acetyl L-Carnitine Phytate (in a 6:1 mole ratio)] yielded a pH value of 4. Moreover, the odor result in data set [2] is given as “odorless”. As to `CC(C)C(=O)O[C@H](CC(=O)O)C[N+](C)(C)C` [Example Embodiment 6, Isobutyryl L-Carnitine Phytate (in a 6:1 mole ratio)], the pH value in data set [1] worked out at 4. Regarding `C[N+](C)(C)C[C@H](O)CC(=O)[O-]` [L-carnitine's inner salt, L-carnitine inner salt], the pKa value in data set [3] is on record as 3.8. Take `O=P(O)(O)O[C@H]1[C@H](OP(=O)(O)O)[C@@H](OP(=O)(O)O)[C@H](OP(=O)(O)O)[C@@H](OP(=O)(O)O)[C@H]1OP(=O)(O)O` [phytic acid, Phytic acid]: in data set [4], the “time to reach targeted tumor tissue” value is recorded as “as early as one hour post-administration”. Further, the “pKa of the remaining three very weakly acidic sites” value in data set [3] was “greater than 10”. The “pKa of the six strongly acidic proton dissociation sites” value in data set [3] (first dissociation proton of each phosphate group) was approximately 1.5. The “time of first detection of IP6 in cells” value in data set [5] was “as early as one minute post-incubation”. In data set [1], “Butyryl L-Carnitine Phytate (in a 6:1 mole ratio) [Example Embodiment 5]” gave a pH value of 4. For “L-Carnitine Phytate (in a 6:1 mole ratio) [Example Embodiment 2]”, the “necropsy findings in hearts, livers, spleens, lungs, kidneys and intestines” value in the data set with mice (single oral dose 5-25 g/Kg, dead mice necropsied) is “not any obvious abnormalities observed”. In addition, in the data set with mice (single oral dose, observed for 14 days), the “acute oral LD50” value stood at 14860 mg/kg. In turn, “Propinoyl L-Carnitine Phytate (in a 6:1 mole ratio) [Example Embodiment 4]” returned a pH value in data set [1] of 4. Further, the odor result in data set [2] is on record as “odorless”.
